For four compounds, Activity, EC50 and EC10 results are on record in ChEMBL document CHEMBL1144368, “Synthesis of 15R-PGD2: a potential DP2 receptor agonist” (Bioorg Med Chem Lett, 2005).

What all share (type): functional
Assay [1] addresses T1, Prostaglandin D2 receptor 2 (Homo sapiens) (UniProt Q9Y5Y4).
T1 sequence (whole entry): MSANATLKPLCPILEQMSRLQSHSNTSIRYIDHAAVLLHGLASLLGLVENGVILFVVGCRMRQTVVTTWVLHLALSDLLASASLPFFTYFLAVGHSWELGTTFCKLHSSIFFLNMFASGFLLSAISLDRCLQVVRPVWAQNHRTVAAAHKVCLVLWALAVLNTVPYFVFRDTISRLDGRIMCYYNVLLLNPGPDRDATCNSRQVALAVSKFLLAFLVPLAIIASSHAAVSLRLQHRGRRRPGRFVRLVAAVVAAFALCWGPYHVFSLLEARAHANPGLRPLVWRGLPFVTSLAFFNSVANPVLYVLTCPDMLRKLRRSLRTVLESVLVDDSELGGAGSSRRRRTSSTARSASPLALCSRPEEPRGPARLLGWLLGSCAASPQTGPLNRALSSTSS
Nature of the assay: Percentage for DP2 mediated stimulation of actin polymerization in eosinophils was determined at 1 uM; (above control).

The target of assay [2] is T2, Prostaglandin D2 receptor (Homo sapiens) (UniProt Q13258).
T2 sequence (whole entry): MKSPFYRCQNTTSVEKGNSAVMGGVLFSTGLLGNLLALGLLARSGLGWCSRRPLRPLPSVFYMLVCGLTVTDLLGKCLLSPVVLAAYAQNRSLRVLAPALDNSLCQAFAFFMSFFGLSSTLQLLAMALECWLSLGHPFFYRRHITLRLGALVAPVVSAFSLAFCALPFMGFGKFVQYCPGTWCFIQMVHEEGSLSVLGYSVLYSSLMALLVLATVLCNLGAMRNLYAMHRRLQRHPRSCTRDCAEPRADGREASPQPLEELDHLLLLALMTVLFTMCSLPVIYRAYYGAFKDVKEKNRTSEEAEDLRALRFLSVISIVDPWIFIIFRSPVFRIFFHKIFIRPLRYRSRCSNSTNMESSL
Nature of the assay: Effective concentration for DP1 mediated cAMP formation in platelets was determined at 1 uM. For orientation: Changes in cAMP serve as a functional read-out for many G protein-coupled receptors.

Assay [3] concerns the target T3, Prostaglandin D2 receptor 2 (Homo sapiens, UniProt Q9Y5Y4).
T3 sequence (Q9Y5Y4 whole entry): T1 sequence (whole entry)
In words: Effective concentration for DP2 mediated stimulation of actin polymerization in eosinophils.

The target of assay [4] is T3, Prostaglandin D2 receptor 2. Nature of the assay: Effective concentration DP2 mediated expression of the adhesion molecule CD11b in eosinophils.
For assay [5], the target named is T2, Prostaglandin D2 receptor (Homo sapiens). Nature of the assay: Effective concentration for DP1 mediated cAMP formation in platelets.

As for `CCCCC[C@@H](O)/C=C/[C@H]1C(=O)C[C@H](O)[C@@H]1C/C=C/CCCC(=O)O`, the Activity in assay [1] came to 83.8%; in assay [2] it was 0.83 pmol.
For orientation: EC50 means the concentration needed to bring the measured effect to its halfway point. A lower EC50 goes with an effect from little substance. What is called EC10 is the concentration at which the effect reaches the 10% level. Read a high EC10 as a need for much substance. On to `CCCCC[C@H](O)/C=C/[C@H]1C(=O)C[C@H](O)[C@@H]1CC=CCCCC(=O)O` [[3H]PGD2], for which the values for the concentration for a half-maximal effect (EC50) in assay [3] and in assay [4] were 13 nM and 7 nM, respectively. Also, the Activity in assay [1] is 86.2%; in assay [2] it was 15.5 pmol. Also, it took 11 nM to reach the 10% level in assay [5] (EC10).
With `CCCCC[C@](C)(O)/C=C/[C@H]1C(=O)C[C@H](O)[C@@H]1C/C=C/CCCC(=O)O`, the EC50 was 333 nM in assay [3] and 99 nM in assay [4]. This compound also gave an EC10 in assay [5] of 2100 nM.
In the case of `CCCCC[C@@](C)(O)/C=C/[C@H]1C(=O)C[C@H](O)[C@@H]1C/C=C/CCCC(=O)O`, the concentration giving a half-maximal response (EC50) in assay [3] was found to be 3.8 nM; in assay [4] it was 1.4 nM. In assay [5], this compound registered an EC10 of over 10000 nM.
